# Like-named read-outs stand apart in the source and are kept apart here.
# Tests used:
# [1] = system: Glomerella Lagenarium (Colletotrichum Lagenarium); experiment: Glomerella lagenarium (Colletotrichum lagenarium) liquid culture / cucumber / preventative (anthracnose); type: cell-based; settings: Colletotrichum orbiculare, read-out: disease control
# Description: Mycelia fragments or conidia suspensions of a fungus prepared either freshly from liquid cultures of the fungus or from cryogenic storage, are directly mixed into nutrient broth. DMSO solutions of the test compound (max. 10 mg/ml) are diluted with 0.025% Tween20 by a factor of 50 and 10 μl of this solution is pipetted into a microtiter plate (96-well format). The nutrient broth containing the fungal spores/mycelia fragments is then added to give an end concentration of the tested compound. The test plates are incubated in the dark at 24° C. and 96% relative humidity. The inhibition of fungal growth is determined photometrically after 2 to 7 days, depending on the pathosystem, and percent antifungal activity relative to the untreated check is calculated.
# Conidia of the fungus from cryogenic storage are directly mixed into nutrient broth (PDB—potato dextrose broth). After placing a (DMSO) solution of test compound into a microtiter plate (96-well format), the nutrient broth containing the fungal spores is added.
# The following compounds at 20 ppm in the applied formulation give at least 80% disease control in this test when compared to untreated control under the same conditions, which show extensive disease development.
# [2] = system: Puccinia recondita f. Sp. Tritici; experiment: Puccinia recondita f. sp. tritici / wheat / leaf disc preventative (brown rust); type: in vivo; settings: foliar, 168 h, read-out: disease control
# Description: Leaf disks or leaf segments of various plant species are cut from plants grown in a greenhouse. The cut leaf disks or segments are placed in multiwell plates (24-well format) onto water agar. The leaf disks are sprayed with a test solution before (preventative) or after (curative) inoculation. Compounds to be tested are prepared as DMSO solutions (max. 10 mg/ml) which are diluted to the appropriate concentration with 0.025% Tween20 just before spraying. The inoculated leaf disks or segments are incubated under defined conditions (temperature, relative humidity, light, etc.) according to the respective test system. A single evaluation of disease level is carried out 3 to 14 days after inoculation, depending on the pathosystem. Percent disease control relative to the untreated check leaf disks or segments is then calculated.
# Wheat leaf segments cv. Kanzler were placed on agar in multiwell plates (24-well format) and sprayed with the formulated test compound diluted in water. The leaf disks were inoculated with a spore suspension of the fungus 1 day after application. The inoculated leaf segments were incubated at 19° C. and 75% relative humidity (rh) under a light regime of 12 hours light/12 hours darkness in a climate cabinet and the activity of a compound was assessed as percent disease control compared to untreated when an appropriate level of disease damage appears in untreated check leaf segments (7 to 9 days after application).
# The following compounds at 200 ppm in the applied formulation give at least 80% disease control in this test when compared to untreated control leaf disks under the same conditions, which show extensive disease development.
# [3] = 20 ppm in the applied formulation, liquid culture in PDB, 24° C., inhibition of growth measured photometrically 3 to 4 days after application, vs untreated
# [4] = 200 ppm in the applied formulation, wheat leaf segments cv. Kanzler, preventative, inoculated 1 day after application, assessed 7 to 9 days after application, vs untreated
SMILES,"inhibition of growth at 20 ppm [1, 3]","pest or weed control at 200 ppm [2, 4]",inhibition of growth at 20 ppm [1],pest or weed control at 200 ppm [2]
"FC(F)(F)c1nc(-c2ccc(Cn3cnc4c(Cl)cccc43)cc2)no1 [Compound 1.94, 3-[4-[(4-chlorobenzimidazol-1-yl)methyl]phenyl]-5-(trifluoromethyl)-1,2,4-oxadiazole]",≥ 80%,≥ 80%,–,–
"FC(F)(F)c1nc(-c2ccc(Cn3c(-c4ccncc4)nc4ccccc43)cc2)no1 [Compound 1.73, 3-[4-[[2-(4-pyridyl)benzimidazol-1-yl]methyl]phenyl]-5-(trifluoromethyl)-1,2,4-oxadiazole]",≥ 80%,≥ 80%,–,–
"Fc1cc(-c2noc(C(F)(F)F)n2)ccc1Cn1cccc2ccnc1-2 [Compound 1.125, 3-[3-fluoro-4-(pyrrolo[2,3-b]pyridin-7-ylmethyl)phenyl]-5-(trifluoromethyl)-1,2,4-oxadiazole]",–,≥ 80%,–,–
"CC(=O)c1cn(Cc2ccc(-c3noc(C(F)(F)F)n3)cc2)c2ccccc12 [Compound 1.50, 1-[1-[[4-[5-(trifluoromethyl)-1,2,4-oxadiazol-3-yl]phenyl]methyl]indol-3-yl]ethanone]",–,–,≥ 80%,≥ 80%
"O=C1CCc2cn(Cc3ccc(-c4noc(C(F)(F)F)n4)cc3)cc21 [Compound 1.74, 2-[[4-[5-(trifluoromethyl)-1,2,4-oxadiazol-3-yl]phenyl]methyl]-5,6-dihydrocyclopenta[c]pyrrol-4-one]",≥ 80%,≥ 80%,–,–
"Fc1ccc(-c2nccn2Cc2ccc(-c3noc(C(F)(F)F)n3)cc2)cc1 [Compound 1.65, 3-[4-[[2-(4-fluorophenyl)imidazol-1-yl)methyl]phenyl]-5-(trifluoromethyl)-1,2,4-oxadiazole]",≥ 80%,≥ 80%,–,–
"FC(F)(F)c1nc(-c2ccc(CN3CCOCC3)cc2)no1 [Compound 1.301, 4-[[4-[5-(trifluoromethyl)-1,2,4-oxadiazol-3-yl]phenyl]methyl]morpholine]",–,≥ 80%,–,–
"FC(F)(F)c1nc(-c2ccc(Cn3cnc4cccc(Cl)c43)cc2)no1 [Compound 1.95, 3-[4-[(7-chlorobenzimidazol-1-yl)methyl]phenyl]-5-(trifluoromethyl)-1,2,4-oxadiazole]",≥ 80%,≥ 80%,–,–
"COC(=O)c1ncn(Cc2ccc(-c3noc(C(F)(F)F)n3)cc2F)n1 [Compound 1.122, methyl 1-[[2-fluoro-4-[5-(trifluoromethyl)-1,2,4-oxadiazol-3-yl]phenyl]methyl]-1,2,4-triazole-3-carboxylate]",≥ 80%,≥ 80%,–,–
"C[C@@H]1CN(Cc2ccc(-c3noc(C(F)(F)F)n3)cc2)C[C@@H](C)O1 [Compound 1.308, (2R,6R)-2,6-dimethyl-4-[[4-[5-(trifluoromethyl)-1,2,4-oxadiazol-3-yl]phenyl]methyl]morpholine]",–,≥ 80%,–,–
"Cc1cn(Cc2ccc(-c3noc(C(F)(F)F)n3)cc2Cl)cn1 [Compound 1.109, 3-[3-chloro-4-[(4-methylimidazol-1-yl)methyl]phenyl]-5-(trifluoromethyl)-1,2,4-oxadiazole]",≥ 80%,≥ 80%,–,–
"COc1cc(Cl)cnc1OCc1cn(Cc2ccc(-c3noc(C(F)(F)F)n3)cc2)nn1 [Compound 1.29, 3-[4-[[4-[(5-chloro-3-methoxy-2-pyridyl)oxymethyl]triazol-1-yl]methyl]phenyl]-5-(trifluoromethyl)-1,2,4-oxadiazole]",≥ 80%,≥ 80%,–,–
"N#Cc1ccn(Cc2ccc(-c3noc(C(F)(F)F)n3)cc2)c1 [Compound 1.60, 1-[[4-[5-(trifluoromethyl)-1,2,4-oxadiazol-3-yl]phenyl]methyl]pyrrole-3-carbonitrile]",≥ 80%,≥ 80%,–,–
"COc1ccc2c(c1)c(C=O)cn2Cc1ccc(-c2noc(C(F)(F)F)n2)cc1 [Compound 1.57, 5-methoxy-1-[[4-[5-(trifluoromethyl)-1,2,4-oxadiazol-3-yl]phenyl]methyl]indole-3-carbaldehyde]",≥ 80%,≥ 80%,–,–
"FC(F)(F)c1nc(-c2ccc(Cn3c(C(F)(F)F)nc4ccccc43)cc2)no1 [Compound 1.48, 5-(trifluoromethyl)-3-[4-[[2-(trifluoromethyl)benzimidazol-1-yl]methyl]phenyl]-1,2,4-oxadiazole]",≥ 80%,≥ 80%,–,–
"FC(F)(F)c1nc(-c2ccc(Cn3cnc(Br)c3)c(Cl)c2)no1 [Compound 1.107, 3-[4-[(4-bromoimidazol-1-yl)methyl]-3-chloro-phenyl]-5-(trifluoromethyl)-1,2,4-oxadiazole]",≥ 80%,≥ 80%,–,–
"FC(F)(F)c1nc(-c2ccc(Cn3ccnc3-c3ccccc3)cc2)no1 [Compound 1.47, 3-[4-[(2-phenylimidazol-1-yl)methyl]phenyl]-5-(trifluoromethyl)-1,2,4-oxadiazole]",≥ 80%,≥ 80%,–,–
"Cc1cn(Cc2ccc(-c3noc(C(F)(F)F)n3)cc2Cl)c(C)n1 [Compound 1.105, 3-[3-chloro-4-[(2,4-dimethylimidazol-1-yl)methyl]phenyl]-5-(trifluoromethyl)-1,2,4-oxadiazole]",–,≥ 80%,–,–
"Cc1nccn1Cc1ccc(-c2noc(C(F)(F)F)n2)cc1 [Compound 1.53, 3-[4-[(2-methylimidazol-1-yl)methyl]phenyl]-5-(trifluoromethyl)-1,2,4-oxadiazole]",–,≥ 80%,–,–
"Cc1nccn1Cc1ccc(-c2noc(C(F)(F)F)n2)cn1 [Compound 1.139, 3-[6-[(2-methylimidazol-1-yl)methyl]-3-pyridyl]-5-(trifluoromethyl)-1,2,4-oxadiazole]",–,≥ 80%,–,–
"FC(F)(F)c1nc(-c2ccc(Cn3cnc(Br)c3)c(C(F)(F)F)c2)no1 [Compound 1.103, 3-[4-[(4-bromoimidazol-1-yl)methyl]-3-(trifluoromethyl)phenyl]-5-(trifluoromethyl)-1,2,4-oxadiazole]",≥ 80%,–,–,–
"Fc1cc(-c2noc(C(F)(F)F)n2)ccc1Cn1nnnc1-c1ccc(Cl)cc1 [Compound 1.130, 3-[4-[[5-(4-chlorophenyl)tetrazol-1-yl)methyl]-3-fluoro-phenyl]-5-(trifluoromethyl)-1,2,4-oxadiazole]",≥ 80%,–,–,–
"FC(F)(F)c1nc(-c2ccc(Cn3cc(Br)cn3)c(Cl)c2)no1 [Compound 1.115, 3-[4-[(4-bromopyrazol-1-yl)methyl]-3-chloro-phenyl]-5-(trifluoromethyl)-1,2,4-oxadiazole]",≥ 80%,–,–,–
"Cc1cc(C)n(Cc2ccc(-c3noc(C(F)(F)F)n3)cn2)n1 [Compound 1.140, 3-[6-[(3,5-dimethylpyrazol-1-yl)methyl]-3-pyridyl]-5-(trifluoromethyl)-1,2,4-oxadiazole]",≥ 80%,–,–,–
"N#Cc1ncn(Cc2ccc(-c3noc(C(F)(F)F)n3)cc2Cl)c1C#N [Compound 1.106, 1-[[2-chloro-4-[5-(trifluoromethyl)-1,2,4-oxadiazol-3-yl]phenyl]methyl]imidazole-4,5-dicarbonitrile]",≥ 80%,–,–,–

# Reference: patent US10798941B2, “Microbiocidal oxadiazole derivatives” (SYNGENTA PARTICIPATIONS AG, priority 2016, dated 2020)
